Measurements taken from patent publication US20230085307A1, “PYRIDAZINONE COMPOUND AND HERBICIDE” (NISSAN CHEMICAL CORPORATION, priority 2019, published 2023).

Tests used:
[1] = tested on: chickweed; assay: Test Example 5: herbicidal effect by foliage application, plastic box (Table 20, symbol P); type: in vivo, common chickweed (Stellaria media); conditions: foliage application; for herbicidal effect on P: chickweed: evaluated three weeks after application
In short: (§1)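 Sow seeds spot-wise in sterilized diluvial soil; cover with ~1.5 cm soil. Grow 14 days in greenhouse, 25° C. to 30° C. Spray foliage with emulsion diluted to predetermined amount. Rate effect after 3 weeks.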

[2] = tested on: chickweed; assay: Test Example 4: herbicidal effect by soil treatment (Table 19, symbol P); type: in vivo, common chickweed (Stellaria media)
In short: (§2)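 Soil-surface application: an emulsion agent diluted with water to the predetermined dose is sprayed uniformly over seeds lying under roughly 1.5 cm of sterilized diluvial soil. Boxes stay in a greenhouse at 25° C. to 30° C. Three weeks later, each species is graded on previously defined criteria.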

[3] = tested on: windgrass; assay: Test Example 5: herbicidal effect by foliage application, plastic box (Table 20, symbol L); type: in vivo, windgrass (Apera spica-venti); conditions: foliage application; for herbicidal effect on L: windgrass: evaluated three weeks after application
In short: as §1

[4] = tested on: Japanese bulrush; assay: Test Example 2: herbicidal activity, application during weed generation under submerged conditions (Table 17, symbol B); type: in vivo, Japanese bulrush (Schoenoplectus juncoides); conditions: AAH 320 g/ha; application during weed generation, submerged conditions
In short: (§3)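 3-wk visual-criteria score after one water-surface dose. Emulsion formulation, water-diluted to set rate; applied at 1–2 leaf stage; alluvial soil, 4 cm standing water; seeds co-sown; greenhouse 25–30° C.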

[5] = tested on: green foxtail; assay: Test Example 5: herbicidal effect by foliage application, plastic box (Table 20, symbol G); type: in vivo, green foxtail (Setaria viridis); conditions: foliage application; for herbicidal effect on G: green foxtail: evaluated three weeks after application
In short: as §1

[6] = tested on: blackgrass; assay: Test Example 4: herbicidal effect by soil treatment (Table 19, symbol J); type: in vivo, blackgrass (Alopecurus myosuroides)
In short: as §2

[7] = tested on: wild oat; assay: Test Example 5: herbicidal effect by foliage application, plastic box (Table 20, symbol I); type: in vivo, wild oat (Avena fatua); conditions: foliage application; for herbicidal effect on I: wild oat: evaluated three weeks after application
In short: as §1

[8] = tested on: late watergrass; assay: Test Example 1: herbicidal activity, application before weed generation under submerged conditions (Table 16, symbol A); type: in vivo, late watergrass (Echinochloa oryzicola); conditions: 320 g/ha applied herbicide
In short: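 Submerged Wagner pots (alluvial soil, 4 cm water) sown with weed seeds and planted with 2.5-leaf rice seedlings; emulsifiable concentrate diluted in water applied to water surface on sowing day. Held in greenhouse at 25-30 °C; injury scored 0-5 by herbicidal rate after three weeks.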

[9] = tested on: persian speedwell; assay: Test Example 5: herbicidal effect by foliage application, plastic box (Table 20, symbol R); type: in vivo, Persian speedwell (Veronica persica); conditions: foliage application; for herbicidal effect on R: persian speedwell: evaluated three weeks after application
In short: as §1

[10] = tested on: green foxtail; assay: Test Example 4: herbicidal effect by soil treatment (Table 19, symbol G); type: in vivo, green foxtail (Setaria viridis)
In short: as §2

[11] = tested on: redroot pigweed; assay: Test Example 4: herbicidal effect by soil treatment (Table 19, symbol N); type: in vivo, redroot pigweed (Amaranthus retroflexus)
In short: as §2

[12] = tested on: rice flat sedge; assay: Test Example 3: herbicidal effect by foliage application, Wagner pot (Table 18, symbol E); type: in vivo, rice flat sedge (Cyperus iria); conditions: 320 g/ha
In short: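 Plants were sown in alluvial soil held under 0.1–0.5 cm standing water and grown 14 days in a greenhouse at 25–30 °C. An emulsifiable formulation, water-diluted to the set dose, was then sprayed onto the foliage, and effects were scored three weeks later using previously defined criteria.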

[13] = tested on: southern crabgrass; assay: Test Example 4: herbicidal effect by soil treatment (Table 19, symbol F); type: in vivo, southern crabgrass (Digitaria ciliaris)
In short: as §2

[14] = tested on: southern crabgrass; assay: Test Example 5: herbicidal effect by foliage application, plastic box (Table 20, symbol F); type: in vivo, southern crabgrass (Digitaria ciliaris); conditions: foliage application; for herbicidal effect on F: southern crabgrass: evaluated three weeks after application
In short: as §1

[15] = tested on: Italian ryegrass; assay: Test Example 4: herbicidal effect by soil treatment (Table 19, symbol K); type: in vivo, Italian ryegrass (Lolium multiflorum)
In short: as §2

[16] = tested on: oval-leafed pondweed; assay: Test Example 2: herbicidal activity, application during weed generation under submerged conditions (Table 17, symbol C); type: in vivo, oval-leafed pondweed (Monochoria vaginalis); conditions: AAH 320 g/ha; application during weed generation, submerged conditions
In short: as §3

[17] = AAH 320 g/ha, three weeks after application
[18] = 320 g/ha, three weeks after application
[19] = amount of applied herbicide 320 g/ha

With `CCCC(=O)Oc1c(C)nn(C)c(=O)c1-c1c(-c2ccc([N+](=O)[O-])cc2)sc2ccccc12` [1-152] the “P: chickweed, herbicidal effect” value [1, 17] was 5 (Herbicidal rate of 90% or more (almost completely withered)), the “P: chickweed, herbicidal effect rating” value ([2]; AAH 320 g/ha) was 3 (Herbicidal rate of 40% or more and less than 70%) and the “L: windgrass, herbicidal effect” value [3, 17] was 0 (Herbicidal rate of 5% or less (almost no effect)). For the same compound, the “herbicidal effect rating, B: Japanese bulrush” value (“herbicidal effect rating, B” below) [4] was 3 (Herbicidal rate of 40% or more and less than 70%), the “G: green foxtail, herbicidal effect” value [5, 17] was 5 (Herbicidal rate of 90% or more (almost completely withered)) and the “J: blackgrass, herbicidal effect rating” value ([6]; AAH 320 g/ha) was 0 (Herbicidal rate of 5% or less (almost no effect)). For the same compound, the “I: wild oat, herbicidal effect” value [7, 17] was 0 (Herbicidal rate of 5% or less (almost no effect)), the “Herbicidal effect on A: late watergrass (grade 0-5)” value (“Herbicidal effect … (grade 0-5)” below) [8] was 4 (Herbicidal rate of 70% or more and less than 90%) and the “R: persian speedwell, herbicidal effect” value [9, 17] was 5 (Herbicidal rate of 90% or more (almost completely withered)). For the same compound, the “G: green foxtail, herbicidal effect rating” value ([10]; AAH 320 g/ha) was 2 (Herbicidal rate of 20% or more and less than 40%), the “N: redroot pigweed, herbicidal effect rating” value ([11]; AAH 320 g/ha) was 3 (Herbicidal rate of 40% or more and less than 70%) and the “herbicidal effect on E (rice flat sedge), rating 0-5” value (from here on “herbicidal effect on E”) [12] was 3 (Herbicidal rate of 40% or more and less than 70%). The “F: southern crabgrass, herbicidal effect rating” value ([13]; AAH 320 g/ha) was 1 (Herbicidal rate of 5% or more and less than 20%), the “F: southern crabgrass, herbicidal effect” value [14, 17] was 4 (Herbicidal rate of 70% or more and less than 90%) and the “K: Italian ryegrass, herbicidal effect rating” value ([15]; AAH 320 g/ha) was 0 (Herbicidal rate of 5% or less (almost no effect)). The “herbicidal effect rating, C: oval-leafed pondweed” value (“herbicidal effect rating, C” below) [16] was 0 (Herbicidal rate of 5% or less (almost no effect)).
`COc1ccc(-c2sc3ccc(F)cc3c2-c2c(O)c(C)nn(C)c2=O)cc1OC` [2-088] was tested, and the “herbicidal effect on P: chickweed” value ([1]; 320 g/ha) was 5 (Herbicidal rate of 90% or more (almost completely withered)), the “herbicidal effect rating, P: chickweed” value ([2]; 320 g/ha) was 2 (Herbicidal rate of 20% or more and less than 40%) and the “herbicidal effect on L: windgrass” value ([3]; 320 g/ha) was 0 (Herbicidal rate of 5% or less (almost no effect)). For the same compound, the “herbicidal effect rating, B” value [4] was 0 (Herbicidal rate of 5% or less (almost no effect)), the “herbicidal effect on G: green foxtail” value ([5]; 320 g/ha) was 5 (Herbicidal rate of 90% or more (almost completely withered)) and the “herbicidal effect rating, J: blackgrass” value ([6]; 320 g/ha) was 0 (Herbicidal rate of 5% or less (almost no effect)). The “herbicidal effect on I: wild oat” value ([7]; 320 g/ha) was 0 (Herbicidal rate of 5% or less (almost no effect)), the “Herbicidal effect … (grade 0-5)” value [8] was 3 (Herbicidal rate of 40% or more and less than 70%) and the “herbicidal effect on R: persian speedwell” value ([9]; 320 g/ha) was 5 (Herbicidal rate of 90% or more (almost completely withered)). The “herbicidal effect rating, G: green foxtail” value (“herbicidal effect rating, G” below) ([10]; 320 g/ha) was 3 (Herbicidal rate of 40% or more and less than 70%), the “herbicidal effect rating, N: redroot pigweed” value (“herbicidal effect rating, N” for short) ([11]; 320 g/ha) was 4 (Herbicidal rate of 70% or more and less than 90%) and the “herbicidal effect on E” value [12] was 5 (Herbicidal rate of 90% or more (almost completely withered)). The “herbicidal effect rating, F: southern crabgrass” value (from here on “herbicidal effect rating, F”) ([13]; 320 g/ha) was 1 (Herbicidal rate of 5% or more and less than 20%), the “herbicidal effect on F: southern crabgrass” value ([14]; 320 g/ha) was 3 (Herbicidal rate of 40% or more and less than 70%) and the “herbicidal effect rating, K: Italian ryegrass” value (“herbicidal effect rating, K” below) ([15]; 320 g/ha) was 3 (Herbicidal rate of 40% or more and less than 70%). For the same compound, the “herbicidal effect rating, C” value [16] was 2 (Herbicidal rate of 20% or more and less than 40%).
For `CCCC(=O)Oc1c(C)nn(C)c(=O)c1-c1c(-c2ccc(C(C)=O)cc2)sc2ccc(F)cc12` [2-078], the “herbicidal effect on P: chickweed” value ([1]; 320 g/ha) was 5 (Herbicidal rate of 90% or more (almost completely withered)), the “herbicidal effect rating, P: chickweed” value ([2]; 320 g/ha) was 3 (Herbicidal rate of 40% or more and less than 70%) and the “herbicidal effect on L: windgrass” value ([3]; 320 g/ha) was 5 (Herbicidal rate of 90% or more (almost completely withered)). The “herbicidal effect rating, B” value [4] was 4 (Herbicidal rate of 70% or more and less than 90%), the “herbicidal effect on G: green foxtail” value ([5]; 320 g/ha) was 3 (Herbicidal rate of 40% or more and less than 70%) and the “herbicidal effect rating, J: blackgrass” value ([6]; 320 g/ha) was 1 (Herbicidal rate of 5% or more and less than 20%). For the same compound, the “herbicidal effect on I: wild oat” value ([7]; 320 g/ha) was 2 (Herbicidal rate of 20% or more and less than 40%), the “Herbicidal effect … (grade 0-5)” value [8] was 5 (Herbicidal rate of 90% or more (almost completely withered)) and the “herbicidal effect on R: persian speedwell” value ([9]; 320 g/ha) was 5 (Herbicidal rate of 90% or more (almost completely withered)). For the same compound, the “herbicidal effect rating, G” value ([10]; 320 g/ha) was 0 (Herbicidal rate of 5% or less (almost no effect)), the “herbicidal effect rating, N” value ([11]; 320 g/ha) was 4 (Herbicidal rate of 70% or more and less than 90%) and the “herbicidal effect on E” value [12] was 5 (Herbicidal rate of 90% or more (almost completely withered)). For the same compound, the “herbicidal effect rating, F” value ([13]; 320 g/ha) was 0 (Herbicidal rate of 5% or less (almost no effect)), the “herbicidal effect on F: southern crabgrass” value ([14]; 320 g/ha) was 0 (Herbicidal rate of 5% or less (almost no effect)) and the “herbicidal effect rating, K” value ([15]; 320 g/ha) was 4 (Herbicidal rate of 70% or more and less than 90%). For the same compound, the “herbicidal effect rating, C” value [16] was 4 (Herbicidal rate of 70% or more and less than 90%).
`Cc1nn(C)c(=O)c(-c2c(-c3ccc(C#N)cc3)sc3ccccc23)c1O` [Compound No. 1-045, 5-hydroxy-2,6-dimethyl-4-(2-(4-cyanophenyl)benzo[b]thiophen-3-yl)pyridazin-3(2H)-one] was tested, and the “herbicidal effect grade, P: chickweed” value [1, 18] was 5 (Herbicidal rate of 90% or more (almost completely withered)), the “herbicidal effect rating, P: chickweed” value [2, 19] was 4 (Herbicidal rate of 70% or more and less than 90%) and the “herbicidal effect grade, L: windgrass” value [3, 18] was 0 (Herbicidal rate of 5% or less (almost no effect)). For the same compound, the “herbicidal effect rating, B” value [4] was 3 (Herbicidal rate of 40% or more and less than 70%), the “herbicidal effect grade, G: green foxtail” value [5, 18] was 3 (Herbicidal rate of 40% or more and less than 70%) and the “herbicidal effect rating, J: blackgrass” value [6, 19] was 0 (Herbicidal rate of 5% or less (almost no effect)). The “herbicidal effect grade, I: wild oat” value [7, 18] was 3 (Herbicidal rate of 40% or more and less than 70%), the “Herbicidal effect … (grade 0-5)” value [8] was 1 (Herbicidal rate of 5% or more and less than 20%) and the “herbicidal effect grade, R: persian speedwell” value [9, 18] was 5 (Herbicidal rate of 90% or more (almost completely withered)). For the same compound, the “herbicidal effect rating, G” value [10, 19] was 4 (Herbicidal rate of 70% or more and less than 90%), the “herbicidal effect rating, N” value [11, 19] was 3 (Herbicidal rate of 40% or more and less than 70%) and the “herbicidal effect on E” value [12] was 5 (Herbicidal rate of 90% or more (almost completely withered)). The “herbicidal effect rating, F” value [13, 19] was 4 (Herbicidal rate of 70% or more and less than 90%), the “herbicidal effect grade, F: southern crabgrass” value [14, 18] was 3 (Herbicidal rate of 40% or more and less than 70%) and the “herbicidal effect rating, K” value [15, 19] was 5 (Herbicidal rate of 90% or more (almost completely withered)). For the same compound, the “herbicidal effect rating, C” value [16] was 4 (Herbicidal rate of 70% or more and less than 90%).
